Data published in EP0714912B1, “GMP-140 ligand” (THE BOARD OF REGENTS OF THE UNIVERSITY OF OKLAHOMA, priority 1990, dated 1992).

Tests used:
[1] = system: neutrophils; assay: Adhesion of neutrophils to microtiter wells coated with lectin peptide 19-34-KLH conjugate or GMP-140; type: cell-based, human; conditions: peptide 1.5 mM; Figure 3
Method: GMP-140 is plated at 5 micrograms/ml and the control proteins: human serum albumin (Alb), platelet glycoprotein IIb/IIIa (IIb), von Willebrand factor (vWF), fibrinogen (FIB), thrombomodulin (TM), gelatin (GEL) or human serum (HS), are added at 50 micrograms/ml. All wells are blocked for 2 h at 22°C with 300 microliters HBSS containing 10 mg/ml HSA, then washed three times with HBSS containing 0.1% Tween-20 and once with HBSS. […] Inhibition is read as a lower percent adhesion, so that a value of 5% means that 95% of the specific adhesion was inhibited.
Lectin peptide 19-34 was conjugated to the carrier protein keyhole limpet hemocyanin by its N-terminal cysteine by standard procedures such as the commercial Imject kit from Pierce Chemicals. This peptide-KLH conjugate was then tested in the assay described in example 1 and the numbers of cells bound determined. […]

[2] = system: immobilized GMP-140; assay: ELISA (avidin detection) of binding of biotinylated monoclonal antibodies G1, G2, G3 to immobilized GMP-140 in presence of soluble peptide; parameters: species or system human; conditions: for % Binding of Biotinylated MAbs G1: peptide 1.5 mM added to biotinylated mAb G1 (2.5 micrograms/ml) before addition to immobilized GMP-140; for % Binding of Biotinylated MAbs G2: peptide 1.5 mM added to biotinylated mAb G2 (2.5 micrograms/ml) before addition to immobilized GMP-140; for % Binding of Biotinylated MAbs G3: peptide 1.5 mM added to biotinylated mAb G3 (2.5 micrograms/ml) before addition to immobilized GMP-140
Method: Based on competitive ELISAs with the purified protein, G1, G2, and G3 each recognize distinct or only partially overlapping epitopes. 1.5 mM peptide was added to biotinylated mAb at a concentration of 2.5 micrograms/ml, which were then added to the wells containing GMP-140, as described in example 1. Binding was measured by an ELISA with an avidin detection system.
The monoclonal antibodies were biotinylated as follows: to 0.5 ml of purified IgG antibody (1 mg/ml in PBS, pH 7.4) was added 50 µl of 3.2 mM N-hydroxysuccinimide biotin in dimethyl sulfoxide and 50 µl of 1 M NaHCO3. After a 2 hour incubation at room temperature in the dark, the reaction was stopped with 50 µl of 1 M NH4Cl. The biotinylated antibody was then separated from other components by gel filtration on a PD-10 column equilibrated in PBS. The ELISA was performed as follows; all steps were performed at room temperature.
Biotinylated antibody (2.5 µg/ml) with or without 1.5 mM peptide was incubated with wells coated with GMP-140 as described in example 1. After a 2 hour incubation, the antibody was removed, the wells were washed, and 0.1 ml of horseradish peroxidase-conjugated stepavidin (Pierce), diluted 1:1,000 in HBSS/HSA, was added for 30 min. The wells were then washed and 0.1 ml of peroxidase substrate (Pierce) was added for 15 min. The color reaction was read at 405 nm.

[3] = system: immobilized GMP-140; assay: Neutrophil adhesion to purified GMP-140 immobilized on plastic wells (myeloperoxidase read-out); type: cell-based, human; conditions: for inhibition of neutrophil adhesion to immobilized GMP-140 by peptides: peptide screen, result in words; for inhibition of binding of neutrophils to immobilized GMP-140, dependence on concentration: 0.1 mM to 1.5 mM peptide, Figure 2
Source text: Peptides were screened for their ability to inhibit neutrophil adhesion to purified GMP-140 immobilized on plastic wells, using the assay described by Geng, et al., Nature 343, 757-760 (1990).
Human neutrophils are isolated from heparinized whole blood by density gradient centrifugation on Mono-Poly resolving media, Flow Laboratories. Neutrophil suspensions are greater than 98% pure and greater than 95% viable by trypan blue exclusion. For adhesion assays, neutrophils are suspended at a concentration of 2 x 10^6 cells/ml in Hanks' balanced salt solution containing 1.26 mM Ca^2+ and 0.81 mM Mg^2+ (HBSS, Gibco) with 5 mg/ml human serum albumin (HBSS/HSA). Adhesion assays are conducted in triplicate in 96-well microtiter plates, Corning, incubated at 4°C overnight with 50 microliters of various protein solutions.
GMP-140 is plated at 5 micrograms/ml and the control proteins: human serum albumin (Alb), platelet glycoprotein IIb/IIIa (IIb), von Willebrand factor (vWF), fibrinogen (FIB), thrombomodulin (TM), gelatin (GEL) or human serum (HS), are added at 50 micrograms/ml. All wells are blocked for 2 h at 22°C with 300 microliters HBSS containing 10 mg/ml HSA, then washed three times with HBSS containing 0.1% Tween-20 and once with HBSS. Cells (2 x 10^5 per well were added to the wells and incubated at 22°C for 20 min. The wells were then filled with HBSS/HSA, sealed with acetate tape (Dynatech), and centrifuged inverted at 150 g for 5 min. After discarding nonadherent cells and supernates, the contents of each well are solubilized with 200 microliters 0.5% hexadecyltrimethylammonium bromide, Sigma, in 50 mM potassium phosphate, pH 6.0, and assayed for myeloperoxidase activity, Ley, et al., Blood 73, 1324-1330 (1989). The number of cells bound was derived from a standard curve of myeloperoxidase activity versus numbers of cells. Under all assay conditions, the cells released less than 5% of total myeloperoxidase and lactate dehydrogenase. Results are presented in Table I. 100% adhesion is that seen in the presence of the C-terminal peptide (amino acid residues 761-777 of GMP-140) as a negative control; this value is the same as controls in which neither peptide nor antibody is added to the cells. Inhibition is read as a lower percent adhesion, so that a value of 5% means that 95% of the specific adhesion was inhibited.
Peptides from the lectin-like domain of GMP-140 were assayed for their ability to inhibit adhesion of neutrophils to immobilized GMP-140 in the assay described in example 1. Concentrations tested ranged from 0.1 mM to 1.5 mM.

[4] = system: neutrophils; assay: Specific binding of [125I]GMP-140 to neutrophils (enzyme-treated cells or with competitors); parameters: species or system human; conditions: 6.5 µM of conjugate, 65 µM of oligosaccharide; coupled to bovine serum albumin at about 10:1

Row | Substance | % Binding of Biotinylated MAbs G1 [2] [%] | % Binding of Biotinylated MAbs G2 [2] [%] | % Binding of Biotinylated MAbs G3 [2] [%] | further results
1 | LECTIN 19-34: synthetic peptide, amino acids 19-34 of the lectin domain of GMP-140 (CQNRYTDLVAIQNKNE; UniProt P16109 60-75, looked up, fragment) | 23 | 26 | 24 | competition by fluid-phase competitor for neutrophil adhesion to immobilized lectin peptide 19-34-KLH conjugate [1]: compete for adhesion; inhibition of neutrophil adhesion to immobilized GMP-140 by peptides [3]: inhibited adhesion
2 | EGF 145-158: synthetic peptide, amino acids 145-158 of the EGF domain of GMP-140 (YPGFYGPECEYVRE; UniProt P16109 186-199, looked up, fragment) | 94 | 92 | 108 | 
3 | amino acids 73-83: peptide from the GMP-140 lectin domain, amino acids 73-83 (AENWADNEPNN; UniProt P16109 114-124, looked up, fragment) |  |  |  | inhibition of binding of neutrophils to immobilized GMP-140, dependence on concentration [3]: inhibited binding in a dose-dependent manner
4 | amino acids 66-78: overlapping peptide of amino acids 66-78 of the GMP-140 lectin domain (KKALTNEAENWAD; UniProt P16109 107-119, looked up, fragment) |  |  |  | inhibition of binding of neutrophils to immobilized GMP-140, dependence on concentration [3]: inhibited binding in a dose-dependent manner; inhibition of neutrophil adhesion to immobilized GMP-140 by peptides [3]: inhibited adhesion; inhibition of neutrophil adhesion to immobilized GMP-140 by peptides ([3]; listed as amino acids 66 to 78): very active
5 | LECTIN 73-89: synthetic peptide, amino acids 73-89 of the lectin domain of GMP-140 (AENWADNEPNNKRNNED; UniProt P16109 114-130, looked up, fragment) | 95 | 99 | 94 | inhibition of neutrophil adhesion to immobilized GMP-140 by peptides [3]: inhibited adhesion
6 | amino acids 23-30: peptide from the GMP-140 lectin domain, amino acids 23-30 (YTDLVAIQ; UniProt P16109 64-71, looked up, fragment) |  |  |  | inhibition of binding of neutrophils to immobilized GMP-140, dependence on concentration [3]: inhibited binding in a dose-dependent manner
7 | sialyl Le^x |  |  |  | inhibition of GMP-140 binding by multivalent neoglycoconjugates [4]: failed to inhibit binding
8 | EGF 134-141: synthetic peptide, amino acids 134-141 of the EGF domain of GMP-140 (LETIGNYT; UniProt P16109 175-182, looked up, fragment) | 97 | 104 | 109 | 
9 | LECTIN 110-116: synthetic peptide, amino acids 110-116 of the lectin domain of GMP-140 (LKKKHAL; UniProt P16109 151-157, looked up, fragment) | 98 | 100 | 108 | 
10 | LECTIN 19-30: synthetic peptide, amino acids 19-30 of the lectin domain of GMP-140 (CQNRYTDLVAIQ; UniProt P16109 60-71, looked up, fragment) |  |  | 54 | 
11 | REPEATS 544-556: control peptide from one of the consensus repeats of GMP-140, amino acids 544-556 | 107 | 96 | 111 | 
12 | LECTIN 54-72: synthetic peptide, amino acids 54-72 of the lectin domain of GMP-140 (RKNNKTWTWVGTKKALTNE; UniProt P16109 95-113, looked up, fragment) | 106 | 125 | 104 | inhibition of neutrophil adhesion to immobilized GMP-140 by peptides [3]: inhibited adhesion
13 | C-TERMINUS 761-777: C-terminal peptide (amino acid residues 761-777 of GMP-140) as a negative control (KDDGKCPLNPHSHLGTY; UniProt P16109 802-818, looked up, fragment) [reference compound] | 100 | 100 | 100 | 
14 | TRANSMEMBRANE 755-761: control peptide from the transmembrane region of GMP-140, amino acids 755-761 (RKRFRQK; UniProt P16109 796-802, looked up, fragment) | 100 | 119 | 104 | 
15 | EGF 128-132: synthetic peptide, amino acids 128-132 of the EGF domain of GMP-140 (SKQGE; UniProt P16109 169-173, looked up, fragment) | 107 | 92 | 104 | 
16 | LECTIN 91-108: synthetic peptide, amino acids 91-108 of the lectin domain of GMP-140 (VEIYIKSPSAPGKWNDEH; UniProt P16109 132-149, looked up, fragment) | 97 | 93 | 96 | 
17 | LECTIN/EGF 118-126: synthetic peptide, amino acids 118-126 of GMP-140 (lectin/EGF domains) (YTASCQDMS; UniProt P16109 159-167, looked up, fragment) | 92 | 92 | 104 | 
18 | amino acids 54-63: peptide from the GMP-140 lectin domain, amino acids 54-63 (RKNNKTWTWV; UniProt P16109 95-104, looked up, fragment) |  |  |  | inhibition of binding of neutrophils to immobilized GMP-140, dependence on concentration [3]: inhibited binding in a dose-dependent manner
